target: T1, Voltage-gated potassium channel, IKs; KCNQ1(Kv7.1)/KCNE1(MinK) (Homo sapiens, UniProt P15382+P51787); experiment: Inhibition of human IKs-channel expressed in Xenopus oocytes; assay type: cell-based, Oocyte
T1 sequence (P51787 whole entry): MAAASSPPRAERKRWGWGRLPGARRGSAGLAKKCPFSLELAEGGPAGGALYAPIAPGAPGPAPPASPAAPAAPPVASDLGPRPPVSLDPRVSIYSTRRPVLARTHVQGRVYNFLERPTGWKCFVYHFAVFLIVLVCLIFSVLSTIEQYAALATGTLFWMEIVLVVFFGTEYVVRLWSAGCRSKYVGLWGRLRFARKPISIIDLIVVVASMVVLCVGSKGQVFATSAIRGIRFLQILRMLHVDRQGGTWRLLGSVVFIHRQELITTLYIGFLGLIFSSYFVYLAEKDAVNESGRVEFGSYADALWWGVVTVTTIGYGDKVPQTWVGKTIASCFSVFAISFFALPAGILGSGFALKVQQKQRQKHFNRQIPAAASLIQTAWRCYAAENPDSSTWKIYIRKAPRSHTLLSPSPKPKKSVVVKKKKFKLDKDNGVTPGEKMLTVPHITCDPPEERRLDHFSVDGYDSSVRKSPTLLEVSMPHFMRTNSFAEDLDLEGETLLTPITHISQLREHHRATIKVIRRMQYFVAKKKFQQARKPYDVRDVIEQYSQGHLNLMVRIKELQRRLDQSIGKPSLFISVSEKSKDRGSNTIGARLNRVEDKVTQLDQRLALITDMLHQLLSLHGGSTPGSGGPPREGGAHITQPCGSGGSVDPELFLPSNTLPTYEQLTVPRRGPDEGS

| Structure (SMILES) | IC50 [nM] |
| --- | --- |
| CN(C1c2cc(OCc3ccccc3)ccc2OC(C)(C)C1O)S(C)(=O)=O (configuration not stated) | 200 |
| CCS(=O)(=O)N(C)[C@H]1c2cc(OCc3ccccc3)ccc2OC(C)(C)[C@@H]1O | 50 |
| CCS(=O)(=O)N(C)[C@@H]1c2cc(F)ccc2OC(C)(C)[C@H]1O | 2200 |
| CCS(=O)(=O)N(C)C1c2ccccc2OC(C)(C)C1O (configuration not stated) | 3100 |
| CCCCOc1ccc2c(c1)C(N(C)S(C)(=O)=O)C(O)C(C)(C)O2 (configuration not stated) | 250 |
| CCS(=O)(=O)N(C)C1c2cc(F)ccc2OC(C)(C)C1O (configuration not stated) | 1200 |
| CCS(=O)(=O)N(C)[C@@H]1c2cc(OCc3ccccc3)ccc2OC(C)(C)[C@H]1O | 400 |
| CCCCS(=O)(=O)N(C)C1c2cc(C#N)ccc2OC(C)(C)C1O (configuration not stated) | 58000 |
| CN(C1c2cc(Cl)ccc2OC(C)(C)C1O)S(C)(=O)=O (configuration not stated) | 1100 |
| CCS(=O)(=O)N(C)C1c2cc(C#N)ccc2OC(C)(C)C1O (configuration not stated) | 6900 |

target: T1, Voltage-gated potassium channel, IKs; KCNQ1(Kv7.1)/KCNE1(MinK); experiment: Inhibition of human IKs-channel expressed in Xenopus oocytes,(Experiment 1); assay type: cell-based, Oocyte

| Structure (SMILES) | IC50 [nM] |
| --- | --- |
| CCS(=O)(=O)N(C)[C@H]1c2cc(C#N)ccc2OC(C)(C)[C@@H]1O | 5000 |
| CCS(=O)(=O)N(C)[C@@H]1c2cc(C#N)ccc2OC(C)(C)[C@H]1O | 44500 |

Reference: ChEMBL document CHEMBL1134676, “Synthesis and activity of novel and selective I(Ks)-channel blockers” (J Med Chem, 2001)
